Results from patent US11141422B2, “Methods for treating pulmonary hypertension” (Chiesi Farmaceutici S.p.A., priority 2011, dated 2021).
“Also recorded” adds a separate entry of the source.

Tests used:
[1] = system: anaesthetized, mechanically ventilated pigs in hypoxia (hypoxic pulmonary vasoconstriction); assay: Response to cangrelor during hypoxia: haemodynamic measurements in pigs (Protocol 2); type: in vivo; settings: for MPAP decrease compared to hypoxia baseline: hypoxia (FiO2˜0.10), mean±SEM
Procedure: (§1) Haemodynamic measurements were performed in six anaesthetized, mechanically ventilated pigs (30.2±0.7 kg) in normoxia (FiO2˜0.21) and hypoxia (FiO2˜0.10) prior to and during right atrial cangrelor infusion at a loading dose of 30 μg/kg/min for 10 min, and then a continuous infusion at 4 μg/kg/min for 80 min. Another six pigs (29.3±0.5 kg) were investigated in normoxia before and during right atrial infusion of ADP at 70 μg/kg/min for ˜7 min; as well as before and during simultaneous ADP and cangrelor infusion for ˜7 min at doses of 70 μg/kg/min and 4 μg/kg/min, respectively, after a cangrelor loading dose of 30 μg/kg/min for 10 min. All data are mean±SEM.
Protocol 2—Response to Cangrelor During Hypoxia.
Compared to hypoxia baseline, MPAP decreased transiently by 3.3±0.4 (p<0.036) and 3.6±0.6 mmHg (p<0.018), respectively, 10 and 30 min after initiation of cangrelor infusion; but returned to levels not different (p=ns) from baseline 60 and 90 min after initiation of cangrelor infusion. PVR, MRAP, PCWP, MAP, SVR, CO, HR, SV and blood-O2-consumption were unaltered by cangrelor infusion during hypoxia (p=ns).

dog thrombosis model = settings: compared with placebo; animals receiving tissue-type plasminogen activator and heparin after thrombus formation; cited from earlier work
[2] = system: anaesthetized, mechanically ventilated pigs in normoxia; assay: Cangrelor infusion alone during normoxia: haemodynamic measurements in pigs; type: in vivo; settings: p=ns
Procedure: as §1
(§2) The ˜4-7 min MAP measurement after simultaneous ADP and cangrelor infusion was, however, not different (p=ns) from the measurement with ADP infusion alone. Also, SVR decreased (p<0.024) by 3.2±1.2 WU, as compared to baseline, in response to simultaneous ADP and cangrelor infusion. […] Furthermore, the ˜4-7 min PVR and PCWP measurements after simultaneous ADP and cangrelor infusion were lower (p<0.005 and p<0.022, respectively) than the measurements with ADP infusion alone. Also, the ˜4-7 min SV measurement after simultaneous ADP and cangrelor infusion was higher (p<0.02) than the measurement with ADP infusion alone.

[3] = cited from earlier work
[4] = system: anaesthetized, mechanically ventilated pigs in normoxia (ADP-induced pulmonary vasoconstriction); assay: Response to simultaneous ADP and cangrelor infusion during normoxia: haemodynamic measurements in pigs (Protocol 4); type: in vivo
Procedure: as §1
Protocol 4—Response to Simultaneous ADP and Cangrelor Infusion.
as §2

[5] = system: anaesthetized, mechanically ventilated pigs in normoxia; assay: Response to ADP infusion during normoxia: haemodynamic measurements in pigs (Protocol 3); type: in vivo
Procedure: as §1
Protocol 3—Response to ADP During Normoxia.
ADP infusion during normoxia increased MPAP, temporarily to peak at 35.2±1.9 mmHg, 19.3±1.6 mmHg higher (p<0.001) than baseline, to then stabilize at a level 10.4±1.6 mmHg higher (p<0.001) than baseline, and 8.9±1.4 mmHg lower (p<0.001) than the peak, after ˜4-7 min. Also, after ˜4-7 min from initiation of ADP infusion, PVR had increased (p<0.002) by 2.8±0.4 WU and PCWP by 2.5±0.7 mmHg (p<0.019), compared to baseline. ADP infusion during normoxia decreased MAP, first to reach a nadir at 39.8±6.1 mmHg, 48.5±6.0 mmHg lower (p<0.001) than baseline, however, then stabilizing, after ˜4-7 min, at a level not different (p=ns) from, although slightly lower than, baseline, and 41.7±8.9 mmHg higher (p<0.001) than the nadir. MRAP, SVR, CO, HR, SV and blood-O2-consumption were unchanged (p=ns) by ADP infusion during normoxia.

[6] = during hypoxia, p=ns, listed as Cangrelor
[7] = simultaneous ADP and cangrelor infusion, normoxia
[8] = simultaneous ADP and cangrelor infusion, after ˜4-7 min
[9] = simultaneous ADP and cangrelor infusion, p=ns
[10] = ˜4-7 min from initiation of ADP infusion

In the case of CSCCNc1nc(SCCC(F)(F)F)nc2c1ncn2[C@@H]1O[C@H](COP(=O)(O)OP(=O)(O)C(Cl)(Cl)P(=O)(O)O)[C@@H](O)[C@H]1O [cangrelor], the “CO change by cangrelor infusion” value ([1]; during hypoxia, p=ns) is reported as “unaltered”, the “HR change by cangrelor infusion” value ([1]; during hypoxia, p=ns) is reported as “unaltered” and the “MAP change by cangrelor infusion” value ([1]; during hypoxia, p=ns) is reported as “unaltered”. For the same compound, the “MRAP change by cangrelor infusion” value ([1]; during hypoxia, p=ns) was “unaltered”, the “PCWP change by cangrelor infusion” value ([1]; during hypoxia, p=ns) was “unaltered” and the “PVR change by cangrelor infusion” value ([1]; during hypoxia, p=ns) was “unaltered”. For the same compound, the “SV change by cangrelor infusion” value ([1]; during hypoxia, p=ns) was “unaltered”, the “SVR change by cangrelor infusion” value ([1]; during hypoxia, p=ns) was “unaltered” and the “blood-O2-consumption change by cangrelor infusion” value ([1]; during hypoxia, p=ns) was “unaltered”. For the same compound, the “MAP change by cangrelor infusion” value [1, 6] was “without affecting”, the “SVR change by cangrelor infusion” value [1, 6] was “without affecting” and the “blood-O2-consumption change by cangrelor infusion” value [1, 6] was “without affecting”. For the same compound, the “MPAP decrease compared to hypoxia baseline” value ([1]; 10 min after initiation of cangrelor infusion (30 μg/kg/min for 10 min, then 4 μg/kg/min)) was 3.3±0.4 mmHg, the “MPAP decrease compared to hypoxia baseline” value ([1]; 30 min after initiation of cangrelor infusion) was 3.6±0.6 mmHg and the “MPAP compared to hypoxia baseline” value ([1]; hypoxia, 60 and 90 min after initiation of cangrelor infusion, p=ns) was “not different”. The “MPAP decrease (attenuation of acute HPV)” value ([1]; hypoxia, 10 min after cangrelor infusion was initiated) was roughly 12%, the “MPAP decrease (attenuation of acute HPV)” value ([1]; hypoxia, 30 min after cangrelor infusion was initiated) was roughly 14% and the cyclic flow variation (dog thrombosis model) was “decreased”. The myocardial flow (dog thrombosis model) was “improved”, the reocclusion (dog thrombosis model) was “decreased” and the “any of the haemodynamic variables” value [2] was “did not alter”. For the same compound, the “time to steady state concentrations in plasma from start of infusion” value ([3]; bolus 30 μg/kg and infusion 4 μg/kg/min) was no more than 30 min, the “half-life (clearance from plasma)” value ([3]; plasma) was 3 to 6 min and the “attenuation of the MPAP peak induced by ADP infusion” value ([4]; normoxia) was 34%. For the same compound, the “sustained MPAP increase induced by ADP infusion” value ([4]; normoxia) was “totally prevented”, the “sustained PVR increase induced by ADP infusion” value ([4]; normoxia) was “totally prevented” and the “MPAP transient increase compared to baseline (peak)” value ([4]; normoxia, simultaneous ADP 70 μg/kg/min and cangrelor 4 μg/kg/min after cangrelor loading dose 30 μg/kg/min for 10 min) was 7.3±1.8 mmHg. The “MPAP peak as share of the peak ADP response without cangrelor” value ([4]; normoxia, simultaneous ADP and cangrelor infusion) was roughly 66%, the “SVR decrease compared to baseline” value ([4]; simultaneous ADP and cangrelor infusion) was 3.2±1.2 WU and the MAP nadir [4, 7] was 64.9±3.4 mmHg. For the same compound, the “MAP transient decrease compared to baseline” value [4, 7] was 19.4±3.1 mmHg, the “MAP stabilized level, higher than the nadir” value [4, 8] was 12.9±2.2 mmHg and the “MAP stabilized level, lower than baseline” value [4, 8] was 6.5±1.2 mmHg. The “MPAP level, lower than the peak” value [4, 8] was 7.4±1.5 mmHg, the “MPAP compared to baseline” value ([4]; simultaneous ADP and cangrelor infusion, after ˜4-7 min, p=ns) was “not different” and the “˜4-7 min MPAP measurement compared to ADP infusion alone” value ([4]; simultaneous ADP and cangrelor infusion, p<0.002) was “significantly lower”. The “˜4-7 min PVR measurement compared to ADP infusion alone” value ([4]; simultaneous ADP and cangrelor infusion, p<0.005) was “lower”, the “˜4-7 min SV measurement compared to ADP infusion alone” value ([4]; simultaneous ADP and cangrelor infusion, p<0.02) was “higher” and the “˜4-7 min PCWP measurement compared to ADP infusion alone” value ([4]; simultaneous ADP and cangrelor infusion, p<0.022) was “lower”. For the same compound, the “MAP nadir compared to the nadir response to ADP alone” value ([4]; simultaneous ADP and cangrelor infusion, p<0.027) was “significantly higher”, the “CO change compared to baseline” value [4, 9] was “unchanged” and the “HR change compared to baseline” value [4, 9] was “unchanged”. The “MRAP change compared to baseline” value [4, 9] was “unchanged”, the “PCWP change compared to baseline” value [4, 9] was “unchanged” and the “PVR change compared to baseline” value [4, 9] was “unchanged”. The “SV change compared to baseline” value [4, 9] was “unchanged”, the “blood-O2-consumption change compared to baseline” value [4, 9] was “unchanged; also recorded: tended to decrease” and the “˜4-7 min CO measurement compared to ADP infusion alone” value [4, 9] was “neither any differences”. The “˜4-7 min HR measurement compared to ADP infusion alone” value [4, 9] was “neither any differences”, the “˜4-7 min MAP measurement compared to ADP infusion alone” value [4, 9] was “not different” and the “˜4-7 min SVR measurement compared to ADP infusion alone” value [4, 9] was “did not differ”. For the same compound, the “MAP decrease to ADP” value ([4]; with cangrelor) was “attenuated”, the “PCWP increase with ADP infusion alone” value ([4]; with cangrelor) was “attenuated” and the “trend for a SV decrease with ADP infusion alone” value ([4]; with cangrelor) was “attenuated”.
For CCCSc1nc(N[C@@H]2C[C@H]2c2ccc(F)c(F)c2)c2nnn([C@@H]3C[C@H](OCCO)[C@@H](O)[C@H]3O)c2n1 [ticagrelor], the cyclic flow variation (dog thrombosis model) is listed as “decreased”, the myocardial flow (dog thrombosis model) is listed as “improved” and the reocclusion (dog thrombosis model) is listed as “decreased”.
With Nc1ncnc2c1ncn2[C@@H]1O[C@H](COP(=O)(O)OP(=O)(O)O)[C@@H](O)[C@H]1O [ADP, adenosine diphosphate] the MAP nadir ([5]; ADP infusion) was 39.8±6.1 mmHg, the “MAP nadir, lower than baseline” value ([5]; ADP infusion) was 48.5±6.0 mmHg and the “MPAP peak, higher than baseline” value ([5]; ADP infusion 70 μg/kg/min) was 19.3±1.6 mmHg. The MPAP peak ([5]; ADP infusion 70 μg/kg/min, mean±SEM) was 35.2±1.9 mmHg, the “MAP stabilized level, higher than the nadir” value ([5]; ADP infusion, after ˜4-7 min) was 41.7±8.9 mmHg and the “MPAP stabilized level, higher than baseline” value ([5]; ADP infusion, after ˜4-7 min) was 10.4±1.6 mmHg. The “MPAP stabilized level, lower than the peak” value ([5]; ADP infusion, after ˜4-7 min) was 8.9±1.4 mmHg, the “MAP stabilized level compared to baseline” value ([5]; ADP infusion, after ˜4-7 min, p=ns) was “not different” and the “CO change by ADP infusion” value ([5]; p=ns) was “unchanged; also recorded: tended to decrease”. For the same compound, the “HR change by ADP infusion” value ([5]; p=ns) was “unchanged”, the “MRAP change by ADP infusion” value ([5]; p=ns) was “unchanged; also recorded: tended to increase” and the “SV change by ADP infusion” value ([5]; p=ns) was “unchanged; also recorded: tended to decrease”. For the same compound, the “SVR change by ADP infusion” value ([5]; p=ns) was “unchanged”, the “blood-O2-consumption change by ADP infusion” value ([5]; p=ns) was “unchanged; also recorded: tended to decrease” and the “PCWP increase compared to baseline” value [5, 10] was 2.5±0.7 mmHg. The “PVR increase compared to baseline” value [5, 10] was 2.8±0.4 WU.
